Laboratory results as given in US12448359B2, “Compounds with immunomodulatory activity and therapeutic uses thereof” (Purdue Research Foundation, priority 2020, dated 2025).

Molecular target: PD-1/PD-L1 interaction (Homo sapiens (Human), UniProt Q9NZQ7)
Assay: PD1/PD-L1 HTRF assay (Cisbio kit), inhibition of PD-1/PD-L1 interaction
Type: binding
Conditions: for IC50 / IC50 value: HTRF, inhibition of PD-1/PD-L1 interaction, 4PL fit; for inhibition to PD-1/PD-L1 interaction (in words): HTRF assay
Procedure: Briefly, 2 μL of the compound, 4 μL from a 25 nM Tagl-PD-L1 protein solution and 4 μL from a 250 nM Tag2-PD1 protein were added into a Cisbio's HTRF 96-well low volume white plate. Then, the plate was incubated for 15 minutes at room temperature. Next, 10 μL from pre-mixed anti-tag detection reagents (5 μL from 1X anti-Tagl-Eu^3+ and 5 μL from 1X anti-Tag2-XL665) were added and the sealed plate was incubated for 2 hours at room temperature. Finally, the plate sealer was removed, and measurements were taken using a HTRF® compatible reader. This protocol used 12 different concentrations of each compound where the maximum and minimum assay concentrations are 10,000 nM and 0.001 nM respectively.
To calculate ΔF/ΔFmax, first the HTRF ratio is calculated as follows;
A multiplication factor of 10000 factor was used to not deal with decimal values that improves data accuracy during calculation. The AR ratio indicating “specific signal” of the compound disrupting the PD-1/PD-L1 interaction was calculated by subtracting background HTRF ratio (negative DMSO control in our work) from each compound (sample) HTRF ratio as follows; ΔR=HTRF ratio (sample)−HTRF ratio (background)
Next, data normalization was done to minimize variation in values on different days, different plate reader instruments, or if the assay was done by different individuals. The normalization was done with respect to the background HTRF ratio and was calculated as follows;
Finally, the ΔF/ΔFmax ratio was calculated to enable comparison of values between multiple experiments.
[formula] wherein ΔF max is taken as the ΔF of the positive DMSO control in the assay.
The IC50 value for PD-1/PD-L1 inhibition was determined by analyzing the log of the concentration—response curves to fit a sigmoid curve with four-parameter logistic (4PL) regression using the GraphPad Prism Software version 8.3.0 for Windows, GraphPad Software, La Jolla California USA, www.graphpad.com. Following equation defines the regression curve.
[formula] wherein X=Log of concentration, Y=Response ΔF/ΔFmax, Top and Bottom=Plateaus in same units as Y, LogIC50=Same log units as X, HillSlope=Slope factor or Hill Slope, Unitless. Using the above equation, LogIC50, is calculated to obtain the IC50 value for each compound. The HTRF_IC50_Data.xlsx data file with all replicates is provided as a Supporting File for use in GraphPad Prism Software to calculate IC50 values.

PD-1/PD-L1 interaction, sequence (Q9NZQ7 19-238): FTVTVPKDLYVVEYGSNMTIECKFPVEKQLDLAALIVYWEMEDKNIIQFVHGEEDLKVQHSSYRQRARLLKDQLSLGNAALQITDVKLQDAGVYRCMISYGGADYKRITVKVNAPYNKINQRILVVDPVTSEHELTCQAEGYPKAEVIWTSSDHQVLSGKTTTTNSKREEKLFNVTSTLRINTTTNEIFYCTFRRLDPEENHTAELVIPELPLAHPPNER

inhibition to PD-1/PD-L1 interaction (in words)	Compound	IC50	IC50 value
–	COc1cc(OCc2cccc(-c3ccc4c(c3)OCCO4)c2C)cc(OC)c1CN[C@H](CO)C(=O)O [Compound 4b]	340 nM	–
no/poor inhibition	COc1cc(OCc2cccc(-c3ccccc3)c2C)cc(OC)c1CNC(CC(F)(F)F)c1ccccc1 (stereo not shown) [Compound 4c, N-(2,6-dimethoxy-4-((2-methyl-[1,1′-biphenyl]-3-yl)methoxy)benzyl)-3,3,3-trifluoro-1-phenylpropan-1-amine]	–	no inhibition
no/poor inhibition	COc1cc(OCc2cccc(-c3ccccc3)c2C)cc(OC)c1CN1CCC[C@H](C(=O)O)C1 [Compound 4e, (S)-1-(2,6-dimethoxy-4-((2-methyl-[1,1′-biphenyl]-3-yl)methoxy)benzyl)piperidine-3-carboxylic acid]	1260 nM	–

Compound	inhibition to PD-1/PD-L1 interaction (in words)	IC50	IC50 value
C#C[C@]1(O)CC[C@H]2[C@@H]3[C@H](C)CC4=CC(=O)CCC4[C@H]3CC[C@@]21C (stereo partly drawn) [Compound 4d, (7R,8R,9S,13S,14S,17R)-17-ethynyl-17-hydroxy-7,13-dimethyl-1,2,6,7,8,9,10,11,12,13,14,15,16,17-tetradecahydro-3H-cyclopenta[a]phenanthren-3-one]	no/poor inhibition	–	no inhibition
